US8816085B2 (Takeda GmbH, priority 2009, dated 2014)

Molecular target: T1, PDE5A1 (human PDE5 from platelets) (Homo sapiens, UniProt O76074)
T1 construct: from tissue; host or cells: platelets from fresh blood of human donors (10,000 g supernatant of sonified platelets)
Experiment: Inhibition of type 5 phosphodiesterase (PDE5) activity, modified SPA test
Assay type: biochemical
Details: PDE5-containing human platelet lysate, 0.5 μM cGMP, value classes, read-out: PDE5A1 inhibitory values [measured as −logIC50 (mol/l)] (converted)
Experimental: Method for Measuring Inhibition of the Type 5 Phosphodiesterase (PDE5) Activity:
As a source for human PDE5, platelets are used. For that purpose, 150 ml fresh blood from human donors anticoagulated with citrate [final concentration 0.3% (w/v)] is centrifuged at 200 g for 10 min to obtain the so-called platelet-rich-plasma (PRP) as a supernatant. 1/10 volume of ACD solution (85 mM Na3-citrate, 111 mM D-glucose, 71 mM citric acid, pH 4.4) is added to 9/10 volume of PRP. After centrifugation (1,400 g, 10 min) the cell pellet is resuspended in 3 ml homogenization buffer (NaCl 140 mM, KCl 3.8 mM, EGTA (ethylene glycol tetraacetic acid) 1 mM, MgCl2 1 mM, Tris-HCl 20 mM, beta-mercaptoethanol 1 mM, pH 8.2) plus protease-inhibitor mix giving rise to the final concentrations of 0.5 mM Pefablock (Roche), 10 μM Leupeptin, 5 μM Trypsininhibitor, 2 mM Benzamidin and 10 μM Pepstatin A. The suspension is sonified and thereafter centrifuged for 15 min at 10,000 g. The resulting supernatant (platelet lysate) is used for enzymatic testings.
PDE5A1 activity is inhibited by the compounds of the present subject matter in a modified SPA (scintillation proximity assay) test, supplied by Amersham Biosciences (see procedural instructions “phosphodiesterase [3H]cAMP SPA enzyme assay, code TRKQ 7090”), carried out in 96-well microtitre plates (MTP's). The test volume is 100 μl and contains 20 mM Tris buffer (pH 7.4), 0.1 mg of BSA (bovine serum albumin)/ml, 5 mM Mg^2+, 1 μM motapizone, 10 nM PDE2 inhibitor 2-(3,4-dimethoxybenzyl)-7-[(1R,2R)-2-hydroxy-1-(2-phenylethyl)propyl]-5-methylimidazo[5,1-t][1,2,4]triazin-4(3H)-one, 0.5 μM cGMP (cyclic guanosine monophosphate) (including about 50,000 cpm of [3H]cGMP as a tracer), 1 μl of the respective compound dilution in dimethylsulfoxide (DMSO) and sufficient PDE5-containing platelet lysat (10,000×g supernatant, see above) to ensure that 10-20 wt % of the cGMP is converted under the said experimental conditions. […] After a preincubation of 5 min at 37° C., the reaction is started by adding the substrate (cGMP) and the assay is incubated for a further 15 min; after that, it is stopped by adding SPA beads (50 μl). In accordance with the manufacturer's instructions, the SPA beads had previously been resuspended in water, but are then diluted 1:3 (v/v) in water; the diluted solution also contains 3 mM 8-methoxymethyl-3-isobutyl-1-methylxanthine (IBMX) to ensure a complete PDE activity stop. After the beads have been sedimented (>30 min), the MTP's are analyzed in commercially available luminescence detection devices. The corresponding IC50 values of the compounds for the inhibition of PDE activity are determined from the concentration-effect curves by means of non-linear regression.

Row | IC50 | Structure (SMILES)
1 | 1 to 10 nM | COCC(=O)N[C@H]1CC[C@@H](NC(=O)c2c(C)[nH]c3c(-c4cc(F)ccc4OCC4CC4)ccnc23)CC1 [Example E27, 7-[2-(Cyclopropylmethoxy)-5-fluorophenyl]-N-{cis-4-[(methoxyacetyl)amino]cyclohexyl}-2-methyl-1H-pyrrolo[3,2-b]pyridine-3-carboxamide]
2 | < 1 nM | COc1ccc(-c2ccnc3c(C(=O)NC4CCN(C(C)=O)CC4)c(C)[nH]c23)c(OCC2CC2)c1 [Example E31, N-(1-Acetylpiperidin-4-yl)-7-[2-(cyclopropylmethoxy)-4-methoxyphenyl]-2-methyl-1H-pyrrolo[3,2-b]pyridine-3-carboxamide]
3 | < 1 nM | CCC(=O)N1CCC(NC(=O)c2c(C)[nH]c3c(-c4ccc(OC)cc4OCC4CC4)ccnc23)CC1 [Example E32, 7-[2-(Cyclopropylmethoxy)-4-methoxyphenyl]-2-methyl-N-(1-propanoylpiperidin-4-yl)-1H-pyrrolo[3,2-b]pyridine-3-carboxamide]
4 | < 1 nM | COCC(=O)N1CCC(NC(=O)c2c(C)[nH]c3c(-c4ccc(OC)cc4OCC4CC4)ccnc23)CC1 [Example E33, 7-[2-(Cyclopropylmethoxy)-4-methoxyphenyl]-N-[1-(methoxyacetyl)piperidin-4-yl]-2-methyl-1H-pyrrolo[3,2-b]pyridine-3-carboxamide]
5 | < 1 nM | COc1ccc(-c2ccnc3c(C(=O)N[C@H]4CC[C@H](NC(C)=O)CC4)c(C)[nH]c23)c(OCC2CC2)c1 [Example E34, N-[trans-4-(Acetylamino)cyclohexyl]-7-[2-(cyclopropylmethoxy)-4-methoxyphenyl]-2-methyl-1H-pyrrolo[3,2-b]pyridine-3-carboxamide]
6 | < 1 nM | CCC(=O)N[C@H]1CC[C@H](NC(=O)c2c(C)[nH]c3c(-c4ccc(OC)cc4OCC4CC4)ccnc23)CC1 [Example E35, 7-[2-(Cyclopropylmethoxy)-4-methoxyphenyl]-2-methyl-N-[trans-4-(propanoylamino)cyclohexyl]-1H-pyrrolo[3,2-b]pyridine-3-carboxamide]
7 | < 1 nM | COCC(=O)N[C@H]1CC[C@H](NC(=O)c2c(C)[nH]c3c(-c4ccc(OC)cc4OCC4CC4)ccnc23)CC1 [Example E36, 7-[2-(Cyclopropylmethoxy)-4-methoxyphenyl]-N-{trans-4-[(methoxyacetyl)amino]cyclohexyl}-2-methyl-1H-pyrrolo[3,2-b]pyridine-3-carboxamide]
8 | < 1 nM | COc1ccc(-c2ccnc3c(C(=O)N[C@H]4CC[C@@H](NC(C)=O)CC4)c(C)[nH]c23)c(OCC2CC2)c1 [Example E37, N-[cis-4-(Acetylamino)cyclohexyl]-7-[2-(cyclopropylmethoxy)-4-methoxyphenyl]-2-methyl-1H-pyrrolo[3,2-b]pyridine-3-carboxamide]
9 | < 1 nM | CCC(=O)N[C@H]1CC[C@@H](NC(=O)c2c(C)[nH]c3c(-c4ccc(OC)cc4OCC4CC4)ccnc23)CC1 [Example E38, 7-[2-(Cyclopropylmethoxy)-4-methoxyphenyl]-2-methyl-N-[cis-4-(propanoylamino)cyclohexyl]-1H-pyrrolo[3,2-b]pyridine-3-carboxamide]
10 | 1 to 10 nM | COCC(=O)N[C@H]1CC[C@@H](NC(=O)c2c(C)[nH]c3c(-c4ccc(OC)cc4OCC4CC4)ccnc23)CC1 [Example E39, 7-[2-(Cyclopropylmethoxy)-4-methoxyphenyl]-N-{cis-4-[(methoxyacetyl)amino]cyclohexyl}-2-methyl-1H-pyrrolo[3,2-b]pyridine-3-carboxamide]
11 | < 1 nM | COc1ccc(OCC2CC2)c(-c2ccnc3c(C(=O)NC4CCN(C(C)=O)CC4)c(C)[nH]c23)c1 [Example E40, N-(1-Acetylpiperidin-4-yl)-7-[2-(cyclopropylmethoxy)-5-methoxyphenyl]-2-methyl-1H-pyrrolo[3,2-b]pyridine-3-carboxamide]
12 | < 1 nM | CCC(=O)N1CCC(NC(=O)c2c(C)[nH]c3c(-c4cc(OC)ccc4OCC4CC4)ccnc23)CC1 [Example E41, 7-[2-(cyclopropylmethoxy)-5-methoxyphenyl]-2-methyl-N-(1-propanoylpiperidin-4-yl)-1H-pyrrolo[3,2-b]pyridine-3-carboxamide]
13 | 1 to 10 nM | COCC(=O)N1CCC(NC(=O)c2c(C)[nH]c3c(-c4cc(OC)ccc4OCC4CC4)ccnc23)CC1 [Example E42, 7-[2-(cyclopropylmethoxy)-5-methoxyphenyl]-N-[1-(methoxyacetyl)piperidin-4-yl]-2-methyl-1H-pyrrolo[3,2-b]pyridine-3-carboxamide]
14 | < 1 nM | COc1ccc(OCC2CC2)c(-c2ccnc3c(C(=O)N[C@H]4CC[C@H](NC(C)=O)CC4)c(C)[nH]c23)c1 [Example E43, N-[trans-4-(Acetylamino)cyclohexyl]-7-[2-(cyclopropylmethoxy)-5-methoxyphenyl]-2-methyl-1H-pyrrolo[3,2-b]pyridine-3-carboxamide]
15 | < 1 nM | CCC(=O)N[C@H]1CC[C@H](NC(=O)c2c(C)[nH]c3c(-c4cc(OC)ccc4OCC4CC4)ccnc23)CC1 [Example E44, 7-[2-(Cyclopropylmethoxy)-5-methoxyphenyl]-2-methyl-N-[trans-4-(propanoylamino)cyclohexyl]-1H-pyrrolo[3,2-b]pyridine-3-carboxamide]
16 | < 1 nM | COCC(=O)N[C@H]1CC[C@H](NC(=O)c2c(C)[nH]c3c(-c4cc(OC)ccc4OCC4CC4)ccnc23)CC1 [Example E45, 7-[2-(Cyclopropylmethoxy)-5-methoxyphenyl]-N-{trans-4-[(methoxyacetyl)amino]cyclohexyl}-2-methyl-1H-pyrrolo[3,2-b]pyridine-3-carboxamide]
17 | < 1 nM | COc1ccc(OCC2CC2)c(-c2ccnc3c(C(=O)N[C@H]4CC[C@@H](NC(C)=O)CC4)c(C)[nH]c23)c1 [Example E46, N-[cis-4-(Acetylamino)cyclohexyl]-7-[2-(cyclopropylmethoxy)-5-methoxyphenyl]-2-methyl-1H-pyrrolo[3,2-b]pyridine-3-carboxamide]
18 | 1 to 10 nM | CCC(=O)N[C@H]1CC[C@@H](NC(=O)c2c(C)[nH]c3c(-c4cc(OC)ccc4OCC4CC4)ccnc23)CC1 [Example E47, 7-[2-(Cyclopropylmethoxy)-5-methoxyphenyl]-2-methyl-N-[cis-4-(propanoylamino)cyclohexyl]-1H-pyrrolo[3,2-b]pyridine-3-carboxamide]
19 | 1 to 10 nM | COCC(=O)N[C@H]1CC[C@@H](NC(=O)c2c(C)[nH]c3c(-c4cc(OC)ccc4OCC4CC4)ccnc23)CC1 [Example E48, 7-[2-(Cyclopropylmethoxy)-5-methoxyphenyl]-N-{cis-4-[(methoxyacetyl)amino]cyclohexyl}-2-methyl-1H-pyrrolo[3,2-b]pyridine-3-carboxamide]
20 | 1 to 10 nM | CC(=O)N1CCC(NC(=O)c2c(C)[nH]c3c(-c4cc(C)ccc4OCC4CC4)ccnc23)CC1 [Example E52, N-(1-Acetylpiperidin-4-yl)-7-[2-(cyclopropylmethoxy)-5-methylphenyl]-2-methyl-1H-pyrrolo[3,2-b]pyridine-3-carboxamide]
21 | 1 to 10 nM | CCC(=O)N1CCC(NC(=O)c2c(C)[nH]c3c(-c4cc(C)ccc4OCC4CC4)ccnc23)CC1 [Example E53, 7-[2-(Cyclopropylmethoxy)-5-methylphenyl]-2-methyl-N-(1-propanoylpiperidin-4-yl)-1H-pyrrolo[3,2-b]pyridine-3-carboxamide]
22 | 1 to 10 nM | COCC(=O)N1CCC(NC(=O)c2c(C)[nH]c3c(-c4cc(C)ccc4OCC4CC4)ccnc23)CC1 [Example E54, 7-[2-(Cyclopropylmethoxy)-5-methylphenyl]-N-[1-(methoxyacetyl)piperidin-4-yl]-2-methyl-1H-pyrrolo[3,2-b]pyridine-3-carboxamide]
23 | 1 to 10 nM | CC(=O)N[C@H]1CC[C@H](NC(=O)c2c(C)[nH]c3c(-c4cc(C)ccc4OCC4CC4)ccnc23)CC1 [Example E55, N-[trans-4-(Acetylamino)cyclohexyl]-7-[2-(cyclopropylmethoxy)-5-methylphenyl]-2-methyl-1H-pyrrolo[3,2-b]pyridine-3-carboxamide]
